The values below come from a melting point compilation (Tetko et al.; mined from patent text by program, amines drawn as free bases though some values may be those of a salt).

The melting point is the temperature, or range, at which the solid turns liquid.

Structures are written as SMILES.

`O=C(OCCCCCCc1ccc(OCc2ccc(Cl)cc2)cc1)c1cccnc1`: the melting point lay in the range of 66 to 67 °C.

For `CCCCCCc1nc2c(N)nc3ccccc3c2n1CCCCNS(=O)(=O)c1ccccc1`, the melting point lay in the range of 84.8 to 85.4 °C.

The compound `COc1cccc(N(CC(=O)N(C)c2ccccc2)C(=O)CNC(=O)Nc2cccc(C)c2)c1` yielded a melting point of 179 °C.

For the compound `CSc1ccc(-c2ccccn2)c2c1C(=O)CC(C)(C)C2`, the melting point lay in the range of 152 to 154 °C.

On to `CN(CCOc1cn(-c2ccc(F)cc2)c2cc(Cl)ccc12)CCN1CCNC1=O`, for which the melting point was in the range of 100 to 102 °C.

As for `O=C(NC1C2CC3CC(C2)CC1C3)c1cc(-c2ccc(Cl)cc2)n(Cc2ccc(Cl)cc2Cl)n1` (configuration not stated), the melting point was determined as 154 °C.

Turning to `CC(=O)CCC(C)C1CC=C2C3=C(CCC21C)C1(C)CCC(O)C(C)(C)C1CC3` (configuration not stated), the melting point is 183 to 185 °C.

`CC(C)(C)c1ccc(NC(=O)NCc2ccc3c(c2)CN(C2CCC(=O)NC2=O)C3=O)cc1` (configuration not stated) yielded a melting point of 254 to 256 °C.

For the compound `CCCCCCCCN(CCCCCCCC)C(=O)CS(=O)(=O)Nc1c(C(C)C)cccc1C(C)C`, the melting point is 107 to 109 °C.

Regarding `N#CCc1ccc(N)c2[nH]ncc12`, the melting point is 164 to 165 °C.

`Cc1cn(C2CC(O)C(CNCc3ccc(Cl)cc3)O2)c(=O)[nH]c1=O` (configuration not stated) displayed a melting point of 179 to 180 °C.

`COP(=S)(OC)SCc1cc(=O)[nH]c(C(C)C)n1`: the melting point lay within 89 to 93 °C.

Regarding `COc1ccc2c(c1)CC(=O)NC2c1ccccc1Cl` (configuration not stated), the melting point lay within 203 to 205 °C.

For the compound `O=C(O)COc1nnc(C(F)(F)F)s1`, the melting point turned out to be 58 °C.

As to `CCCc1nc2cnc3cc(Br)ccc3c2n1CC1CCN(C(=O)OC(C)(C)C)CC1`, the melting point was in the range of 215 to 216 °C.

Turning to `CCCCc1nc2cccc(CCO)c2n1Cc1ccccc1Cl`, the melting point was in the range of 130 to 132 °C.

Regarding `O=C(Nc1ccc(C(=O)N2CCCc3ccccc32)cc1)c1ccc(CO)cc1`, the melting point lay in the range of 224 to 226 °C.

As to `O=[N+]([O-])c1cccc(-c2nnc(Cl)s2)c1`, the melting point was 162 to 165 °C.

Compound `CCOC(=O)c1cn(-c2nc(F)cs2)c2nc(N3CCC(NC(=O)OC(C)(C)C)C3)ccc2c1=O` (configuration not stated) showed a melting point of 233 to 234 °C.

As to `C#CCOc1ccc2ccc(=S)oc2c1`, the melting point was 97 to 101 °C.

`COc1ccc(O)c(CNc2cccs2)c1` had a melting point of 109 to 110 °C.

In the case of `CCOC(=O)C(=O)Nc1cc(OC)ccc1[N+](=O)[O-]`, the melting point turned out to be 158 °C.

With `CCOc1ncc(N)cc1C(=O)O`, the melting point was 260 to 262 °C.

Compound `COC(=O)c1ccc(-c2ccc(I)c(O)c2)cc1` displayed a melting point of 192 °C.

As for `CN1CCN(c2ccccc2CC2CCN(c3ccccc3)C2=O)CC1` (configuration not stated), the melting point lay within 104 to 106 °C.

`COc1ccc2c(-c3ccc(OC)c(C)c3)noc2c1` gave a melting point of 93 to 95 °C.

`CCCCCCCCCCCCCCOc1ccccc1C(=O)N(CC)CC` displayed a melting point of 31 to 32 °C.

As to `O=C(Nc1nc(C(C(=O)O)=C(Cl)C(=O)OCc2ccccc2)cs1)OCc1ccccc1`, the melting point is 173 to 174 °C.

Compound `O=C(O)CN(CC(=O)O)CC(c1ccc([N+](=O)[O-])cc1)N(CC(=O)O)CC(=O)O` (configuration not stated) came in with a melting point of 171 to 174 °C.

For `O=S(=O)(NCCCCOc1ccc(-n2ccnc2)cc1)c1cccc2cccnc12`, the melting point is 131 to 133 °C.

Compound `CCCCCNc1ncnc2c(C(C)C)n[nH]c12` came in with a melting point of 73 to 75 °C.

In turn, `CC(=O)NS(=O)(=O)c1ccc(-n2sc3ccccc3c2=O)cc1` yielded a melting point of 254 to 255 °C.

The compound `Cc1cc(CN(Cc2ccsc2)c2sc(-c3ccc(C(F)(F)F)cc3)nc2C)cc(C)c1OC(C)(C)C(=O)O` yielded a melting point of 90 to 100 °C.

Turning to `COCOc1ccc(OC)c(-c2ccc(C[C@H](NC(=O)c3c(Cl)cccc3Cl)C(=O)O)cc2)c1OC`, the melting point fell in the range of 156 to 157 °C.

`O=C(c1ccc(C(F)(F)F)cc1)c1cccc(O)c1` came in with a melting point of 130 °C.

`CCOC(=O)c1cnn(-c2ccc(F)cc2)c1Cl` registered a melting point of 70 to 72 °C.

On to `Cc1c(C#N)ccc2nc(N)nc(N)c12`, for which the melting point was more than 270 °C.

Compound `CC(=O)Nc1cccc2c(=O)[nH]c3ccccc3c(=O)c12` came in with a melting point of 270 to 272 °C.

Compound `Cc1cccc2c1c(N1CCOCC1)nc1c(-c3nc(C4CC4)no3)ncn12` showed a melting point of 262 to 266 °C.

In turn, `COc1cc(O)c(CC=C(C)C)c(O)c1C(=O)C=Cc1ccc(O)cc1` had a melting point of 172 °C.

`OCC1CCC2=C(Cc3ccccc32)C1CN1CCCCC1CO` (configuration not stated) showed a melting point of 151 to 159 °C.

`Cc1sc2c(c1C)C(c1ccc(Cl)cc1)=NC(N)c1nnc(C)n1-2` (configuration not stated) showed a melting point of 192 to 197 °C.

In turn, `Nc1cc2c(cc1Br)C(=O)OC2` came in with a melting point of 235 to 241 °C.

Compound `Oc1cnc(C(F)(F)F)nc1` returned a melting point of 179 to 181 °C.

The compound `C#CC1(COCc2ccccc2)OC(n2ccc(=O)[nH]c2=O)C(OC(C)=O)C1OCc1ccccc1` (configuration not stated) had a melting point of 105 to 106 °C.

In the case of `COc1ccc2[nH]cc(C3CCN(C(=O)NCC4CCC(c5ccccc5)(N(C)C)CC4)CC3)c2c1` (configuration not stated), the melting point lay in the range of 98 to 100 °C.

Consider `CC(C)(C)NC(=O)N1CCn2c(Cl)c(-c3cccc(C#N)c3)c(C(N)=O)c2C1`, for which the melting point is 192 to 195 °C.

`CCC1=C(C#N)C(c2ccccc2OC)c2c[nH]nc2N1` (configuration not stated): the melting point fell in the range of 230 to 232 °C.

With `OC1C2CCN(CC2)C1CN1CCCCC1` (configuration not stated), the melting point lay within 130 to 131 °C.

In turn, `CCCN(CCC)CC(=O)Nc1cccc2c1C(=O)c1c(NC(=O)CN(CCC)CCC)cccc1C2=O` registered a melting point of 129 to 130 °C.

In turn, `CCCCOP(=O)(C/C=C/CC1(C(=O)NCCC)c2cc(F)ccc2-c2ccc(F)cc21)OCCCC` gave a melting point of 142 to 146 °C.

In turn, `COc1ccc(-c2nc(CCO)nc3cc(OC)c(OC)cc23)cc1OC` displayed a melting point of 165 to 166 °C.

With `O=C(CCCOc1ccc(OCc2ccccc2)cc1)C(F)(F)F`, the melting point lay within 51 to 53 °C.

For `CCOCc1nc2c(N)nc3cc(-c4cccnc4)ccc3c2n1CCN1CCNCC1`, the melting point was 208 to 211 °C.

`CC(C)c1ccc(NC(=O)C(F)(F)F)cc1` registered a melting point of 98 °C.

For the compound `Oc1ccccc1NC(=S)NCc1ccncc1`, the melting point amounted to 180 °C.

As to `COc1cc2c(Nc3ccc(Sc4nccn4C)c(Cl)c3)c(C#N)cnc2cc1/C=C/CCCN1CCN(C)CC1`, the melting point lay within 215 to 221 °C.

On to `COc1cc2nc(SCc3cc(N(C)C)c(Cl)cn3)[nH]c2cc1OC`, for which the melting point lay in the range of 116 to 117 °C.

`COCCOc1ncccc1S(N)(=O)=O` returned a melting point of 102 to 103 °C.

`NC1(c2ccccc2)C(=O)Nc2ccc(Cl)cc21` (configuration not stated) returned a melting point of 230 to 235 °C.

In turn, `CCOC(=O)C(C)(CCCN(C)CCc1ccc(OC)c(OC)c1)c1ccc(OC)c(OC)c1` (configuration not stated) had a melting point of 118 to 121 °C.

The compound `CC(C)CC(=Cc1ccccc1)C(=O)O` yielded a melting point of 66 to 67.5 °C.

On to `OCCCc1conc1-c1ccc(Cl)c(F)c1`, for which the melting point is 54 to 55 °C.

The compound `COc1cccc2c1CC1CC(CN3CCC(c4c[nH]c5ccccc45)CC3)CN(C)C1C2` (configuration not stated) came in with a melting point of 220 to 223 °C.

As to `Cc1ccc(-c2cccc3ccccc23)n1CC[C@H]1C[C@H](O)CC(=O)O1` (relative stereo), the melting point was 137 to 138 °C.

On to `Cc1nc2ccccc2nc1C(=O)OCCO`, for which the melting point was 146 to 148 °C.

Compound `CCOC(=O)COc1ccc(S(=O)CCNS(=O)(=O)c2ccccc2)cc1` (configuration not stated) displayed a melting point of 116 to 118 °C.

On to `O=[N+]([O-])c1cc2nc(O)c(O)nc2c2nccnc12`, for which the melting point was more than 300 °C.

Turning to `CCC(C(=O)N(C)C)n1ccc(-c2ccccc2C)n1` (configuration not stated), the melting point fell in the range of 48 to 51 °C.

Consider `COc1cc2c(cc1N1CCNCC1)OCC2`, for which the melting point is 108 to 109 °C.

As to `CCc1nc2c(o1)C(=O)C=C(Nc1ccc(F)cc1)C2=O`, the melting point was determined as 232 °C.

`CCN(CC)CCOc1ccc(C(O)(CC)c2cc(C)ccc2C)cc1` (configuration not stated) returned a melting point of 89 to 90 °C.

For `COc1cc(Cl)cc(CC#N)c1Cl`, the melting point lay in the range of 53 to 57 °C.

In turn, `COc1ccc(CCc2oc3ccc(Br)cc3c2CO)cc1` yielded a melting point of 65 to 75 °C.

With `COc1cc(O)ccc1N`, the melting point fell in the range of 168 to 170 °C.

`O=C1NCCc2c(-c3ccc4ccccc4c3)[nH]c3cccc1c23` returned a melting point of 261 to 262 °C.

In the case of `O=CC12CC(c3ccccc31)c1ccc(Cl)cc12` (configuration not stated), the melting point lay in the range of 91 to 92 °C.

`COc1cnc(NCCNCC(O)COc2ccccc2)c2ccccc12` (configuration not stated) yielded a melting point of 152 to 153 °C.

`COc1ccc2c(c1)CCC(c1ccc(OC)cc1OC)C2=O` (configuration not stated) yielded a melting point of 116 to 118 °C.

Compound `CCOC(=O)[C@@H](O)[C@@H]1OC(=O)c2c(OC)cc(OC)cc21` yielded a melting point of 154 to 156 °C.

`CN(C)CCNc1ccc(NCCCCC(=O)NOCc2ccccc2)c2c1C(=O)c1ccccc1C2=O` displayed a melting point of 146 to 148 °C.

`COC(=O)c1ccc(-c2cc(-c3ccc(C(F)(F)F)cc3)on2)cc1` gave a melting point of 183 to 184 °C.

The compound `Nc1nc2c(s1)CC(N1CCN(c3ccc(Br)cn3)CC1)CC2` (configuration not stated) gave a melting point of 246 to 248 °C.

In turn, `Cc1cc(-c2cc(F)c(F)cc2-c2ccc(S(C)(=O)=O)cc2)ccc1Cl` had a melting point of 152 °C.

In turn, `CCOC(=O)c1ccc(NC(=O)/C=C/c2cnn(C)c2-c2ccc(F)cc2)cc1` displayed a melting point of 202 to 203 °C.

`Cc1nc(N2CCN(Cc3ccc(OC(F)(F)F)cc3)C2=O)sc1C(=O)NC[C@H](O)c1ccccc1` had a melting point of 149 to 151 °C.

For `COc1cc(CCCC2OC(=O)NC2=O)ccc1OCc1csc(CCc2ccccc2)n1` (configuration not stated), the melting point lay within 136 to 137 °C.

In turn, `CC(=O)SC(C)CC(=O)N1CCC[C@H]1C(=O)O` (some centres not stated) came in with a melting point of 175 to 176 °C.

Compound `O=C(Nc1nnc(C2CC2)o1)C1c2ccccc2Oc2ccccc21` returned a melting point of 246 to 248 °C.

The compound `CCC(=O)C(=Cc1cc(O)c(O)c(C#N)c1)C(=O)CC` registered a melting point of 165 to 173 °C.

The compound `COc1ccc(NC(C)=O)cc1OC(F)F` showed a melting point of 129 to 130 °C.

`S=C(Cc1ccc2ccccc2c1)N1CCCCC1`: the melting point was 89 to 91 °C.
